≈ marks a conversion by molar mass, not a printed value. Read-outs that look alike come from different tables or passages of the source.
What was measured:
[1] = system: S. aureus RN-4220 (plasmid pUL5054, MsrA macrolide efflux protein); assay: MIC/MBC by broth microdilution, strain RN-4220; type: cell-based; settings: Staphylococcus aureus; for MBC: read-out: Minimum Bactericidal Concentration (MBC); for MIC: read-out: Minimum Inhibitory Concentration (MIC)
Protocol: (§1) The effluxing strains were kindly provided by Professor Simon Gibbons (University of London, London, UK), and the MARSA strains were obtained from the culture collection of the Laboratory of Microorganism Genetics (Department of Molecular Biology, Federal University of Paraíba). All strains were maintained on blood agar base slants (BAB, Difco Laboratories Ltd., Brazil), and prior to use, the cells were grown overnight at 37 °C in brain heart infusion broth (BHI, Difco Laboratories Ltd., Detroit, MI, USA).
(§2) The stock solutions of the compounds were prepared in DMSO which at its highest final concentration after dilution in the broth (4%) caused no inhibition of bacterial growth. The minimum inhibitory concentrations (MICs) of the compounds were determined in BHI by microdilution assay using a suspension of ca. 10^5 cfu/mL and a drug concentration range of 256 to 0.5 μg/mL (two-fold serial dilutions). The MIC is defined as the lowest concentration at which no growth is observed. The dye resazurin was used for better visualization of the bacterial growth. […] The minimum bactericidal concentration (MBC) is defined as the lowest drug concentration that gives no growth on the agar.

S. aureus 05H (MARSA) = assay: MIC/MBC by broth microdilution, clinical strain 05H; type: cell-based, Staphylococcus aureus; settings: for MIC / MBC: Staphylococcus aureus, 5 h; for MBC: read-out: Minimum Bactericidal Concentration (MBC)
Protocol: as §1, §2

[2] = system: S. aureus IS-58 (TetK tetracycline efflux protein); assay: MIC/MBC by broth microdilution, strain IS-58; type: cell-based; settings: Staphylococcus aureus; for MBC: read-out: Minimum Bactericidal Concentration (MBC); for MIC: read-out: Minimum Inhibitory Concentration (MIC)
Protocol: as §1, §2

S. aureus 007 (MARSA) = assay: MIC/MBC by broth microdilution, clinical strain 007; type: cell-based; settings: Staphylococcus aureus; for MBC: read-out: Minimum Bactericidal Concentration (MBC); for MIC: read-out: Minimum Inhibitory Concentration (MIC)
Protocol: as §1, §2

[3] = system: S. aureus SA-1199B (overexpresses the NorA efflux protein); assay: MIC/MBC by broth microdilution, strain SA-1199B; type: cell-based; settings: Staphylococcus aureus; for MBC: read-out: Minimum Bactericidal Concentration (MBC); for MIC: read-out: Minimum Inhibitory Concentration (MIC)
Protocol: as §1, §2

[4] = read-out: Minimum Inhibitory Concentration (MIC)
[5] = strain 007, first number of cell MIC-MBC
[6] = strain 007, second number of cell MIC-MBC

SMILES | MBC [1] | MIC [1] | MIC (S. aureus 05H (MARSA)) | MBC (S. aureus 05H (MARSA)) | MIC (S. aureus 05H (MARSA); [4]) | MBC [2] | MIC [2] | MBC (S. aureus 007 (MARSA)) | MIC (S. aureus 007 (MARSA)) | MBC [3] | MIC [3] | MIC (S. aureus 007 (MARSA); [5]) | MBC (S. aureus 007 (MARSA); [6]) | fold more potent than the standard chloramphenicol (S. aureus 05H (MARSA); strain MARSA (05H)) | melting point
O=C(N[C@H](CO)[C@H](O)c1ccc([N+](=O)[O-])cc1)C(Cl)Cl [Chloramphenicol, chloramphenicol, reference compound] | 128 µg/mL (≈ 396 µM) | 64 µg/mL (≈ 198 µM) | 64 µg/mL (≈ 198 µM) | 128 µg/mL (≈ 396 µM) | 64 µg/mL (≈ 198 µM) | 128 µg/mL (≈ 396 µM) | 64 µg/mL (≈ 198 µM) | 128 µg/mL (≈ 396 µM) | 64 µg/mL (≈ 198 µM) | 64 µg/mL (≈ 198 µM) | 64 µg/mL (≈ 198 µM) | – | – | – | –
O=C(NN=Cc1ccc([N+](=O)[O-])o1)c1ccccc1 [Compound 4a, N′-((5-nitrofuran-2-yl)methylene)benzohydrazide] | – | – | – | 8 µg/mL (≈ 30.9 µM) | 8 µg/mL (≈ 30.9 µM) | – | – | – | – | 16 µg/mL (≈ 61.7 µM) | 16 µg/mL (≈ 61.7 µM) | 8 µg/mL (≈ 30.9 µM) | 8 µg/mL (≈ 30.9 µM) | – | –
Cc1ccc(C(=O)NN=Cc2ccc([N+](=O)[O-])o2)cc1 [Compound 4b, 4-Methyl-N′-((5-nitrofuran-2-yl)methylene)benzohydrazide] | – | – | – | 4 µg/mL (≈ 14.6 µM) | 4 µg/mL (≈ 14.6 µM) | – | – | – | – | 32 µg/mL (≈ 117 µM) | 16 µg/mL (≈ 58.6 µM) | 8 µg/mL (≈ 29.3 µM) | 8 µg/mL (≈ 29.3 µM) | – | –
O=C(NN=Cc1ccc([N+](=O)[O-])o1)c1ccc([N+](=O)[O-])cc1 [Compound 4c, 4-Nitro-N′-((5-nitrofuran-2-yl)methylene)benzohydrazide] | 32 µg/mL (≈ 105 µM) | 16 µg/mL (≈ 52.6 µM) | – | 8 µg/mL (≈ 26.3 µM) | 8 µg/mL (≈ 26.3 µM) | – | 16 µg/mL (≈ 52.6 µM) | – | – | 32 µg/mL (≈ 105 µM) | 32 µg/mL (≈ 105 µM) | 8 µg/mL (≈ 26.3 µM) | 16 µg/mL (≈ 52.6 µM) | – | –
O=C(NN=Cc1ccc([N+](=O)[O-])o1)c1ccc(Cl)cc1 [Compound 4d, 4-Chloro-N′-((5-nitrofuran-2-yl)methylene)benzohydrazide] | – | – | 4 µg/mL (≈ 13.6 µM) | 4 µg/mL (≈ 13.6 µM) | 4 µg/mL (≈ 13.6 µM) | 16 µg/mL (≈ 54.5 µM) | – | – | – | 16 µg/mL (≈ 54.5 µM) | 16 µg/mL (≈ 54.5 µM) | 8 µg/mL (≈ 27.2 µM) | 8 µg/mL (≈ 27.2 µM) | 16 fold | –
COc1ccc(C(=O)NN=Cc2ccc([N+](=O)[O-])o2)cc1 [Compound 4e, 4-Methoxy-N′-((5-nitrofuran-2-yl)methylene)benzohydrazide] | 16 µg/mL (≈ 55.3 µM) | 16 µg/mL (≈ 55.3 µM) | – | 4 µg/mL (≈ 13.8 µM) | 4 µg/mL (≈ 13.8 µM) | – | – | – | – | 16 µg/mL (≈ 55.3 µM) | 16 µg/mL (≈ 55.3 µM) | 8 µg/mL (≈ 27.7 µM) | 8 µg/mL (≈ 27.7 µM) | – | –
CC(=O)N1N=C(c2ccccc2)OC1c1ccc([N+](=O)[O-])o1 (stereo not drawn) [Compound 5a, 1-(2-(5-Nitrofuran-2-yl)-5-phenyl-1,3,4-oxadiazol-3(2H)-yl)ethanone] | – | 16 µg/mL (≈ 53.1 µM) | – | 16 µg/mL (≈ 53.1 µM) | 16 µg/mL (≈ 53.1 µM) | 16 µg/mL (≈ 53.1 µM) | 16 µg/mL (≈ 53.1 µM) | – | – | – | – | 32 µg/mL (≈ 106 µM) | 32 µg/mL (≈ 106 µM) | – | 178 to 180 °C
CC(=O)N1N=C(c2ccc(C)cc2)OC1c1ccc([N+](=O)[O-])o1 (stereo not drawn) [Compound 5b, 1-(2-(5-Nitrofuran-2-yl)-5-(methylphenyl)-1,3,4-oxadiazol-3(2H)-yl)ethanone] | – | – | – | – | – | – | – | – | – | – | – | – | – | – | 160 to 162 °C
CC(=O)N1N=C(c2ccc([N+](=O)[O-])cc2)OC1c1ccc([N+](=O)[O-])o1 (stereo not drawn) [Compound 5c, 1-(2-(5-Nitrofuran-2-yl)-5-(4-nitrophenyl)-1,3,4-oxadiazol-3(2H)-yl)ethanone] | 32 µg/mL (≈ 92.4 µM) | – | – | 8 µg/mL (≈ 23.1 µM) | 8 µg/mL (≈ 23.1 µM) | – | – | – | – | 32 µg/mL (≈ 92.4 µM) | 32 µg/mL (≈ 92.4 µM) | 16 µg/mL (≈ 46.2 µM) | 16 µg/mL (≈ 46.2 µM) | – | 188 to 190 °C
CC(=O)N1N=C(c2ccc(Cl)cc2)OC1c1ccc([N+](=O)[O-])o1 (stereo not drawn) [Compound 5d] | 32 µg/mL (≈ 95.3 µM) | – | 8 µg/mL (≈ 23.8 µM) | 8 µg/mL (≈ 23.8 µM) | 8 µg/mL (≈ 23.8 µM) | – | – | – | – | 32 µg/mL (≈ 95.3 µM) | – | 16 µg/mL (≈ 47.7 µM) | 16 µg/mL (≈ 47.7 µM) | – | 188 to 190 °C
COc1ccc(C2=NN(C(C)=O)C(c3ccc([N+](=O)[O-])o3)O2)cc1 (stereo not drawn) [Compound 5e, 1-(2-(5-Nitrofuran-2-yl)-5-(methoxyphenyl)-1,3,4-oxadiazol-3(2H)-yl)ethanone] | – | – | – | – | – | – | – | – | – | – | – | – | – | – | 181 to 183 °C

Source: PMC6268585, “Synthesis, Molecular Properties Prediction, and Anti-staphylococcal Activity of N-Acylhydrazones and New 1,3,4-Oxadiazole Derivatives” (Molecules, 2012)
